Results from patent publication EP4755888A1 (ILAb Co., Ltd., priority 2023, dated 2025).

Target: PD-1/PD-L1 (Homo sapiens, UniProt Q9NZQ7)
Assay: TR-FRET PD-1/PD-L1 binding inhibition at the molecular level (free proteins)
Conditions: Tag1-PD-L1 and Tag2-PD-1 proteins, twelve concentrations from 200 nM, 2 hours at room temperature, read-out: FRET assay (IC50)
Summary of the method: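 HTRF read-out at 665/620 nm after 2 h at room temperature. Detection used anti-Tag1 Eu cryptate plus anti-Tag2 XL665 antibodies. Tagged PD-L1 and PD-1 proteins were pre-mixed with compound across twelve […] 1:2 dilutions starting at 200 nM.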

Sequence of PD-1/PD-L1 (Q9NZQ7 19-238 limits assumed): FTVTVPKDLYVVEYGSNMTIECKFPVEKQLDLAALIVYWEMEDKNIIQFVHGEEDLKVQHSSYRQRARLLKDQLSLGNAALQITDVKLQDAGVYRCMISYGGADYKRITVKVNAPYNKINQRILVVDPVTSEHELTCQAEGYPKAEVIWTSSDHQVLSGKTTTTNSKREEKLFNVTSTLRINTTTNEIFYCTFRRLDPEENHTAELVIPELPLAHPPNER

Compound | IC50
Cc1c(NC(=O)c2cc3n(n2)CCCC3N2CC[C@@H](C(=O)O)C2)cccc1-c1cccc(Nc2nc(C(F)F)nc3cc(CN4CC[C@@H](O)C4)cnc23)c1C (stereo partly drawn) [Compound 133, (3R)-1-(2-((3'-((2-(difluoromethyl)-7-(((R)-3-hydroxypyrrolidin-1-yl)methyl)pyrido[3,2-d]pyrimidin-4-yl)amino)-2,2'-dimethyl-[1,1'-biphenyl]-3-yl)carbamoyl)-4,5,6,7-tetrahydropyrazolo[1,5-a]pyridin-4-yl)pyrrolidine-3-carboxylic acid] | < 0.01 µM
Cc1c(NC(=O)c2cc3n(n2)CCCC3NCC(=O)O)cccc1-c1cccc(Nc2nc(C(F)F)nc3cc(CN4CC[C@@H](O)C4)cnc23)c1C (stereo partly drawn) [Compound 134, 2-((2-((3'-((2-(difluoromethyl)-7-(((R)-3-hydroxypyrrolidin-1-yl)methyl)pyrido[3,2-d]pyrimidin-4-yl)amino)-2,2'-dimethyl-[1,1'-biphenyl]-3-yl)carbamoyl)-4,5,6,7-tetrahydropyrazolo[1,5-a]pyridin-4-yl)amino)acetic acid] | 0.01 to 0.1 µM
Cc1c(NC(=O)c2cc3n(n2)CCCC3N2CCC(O)CC2)cccc1-c1cccc(Nc2nc(C(F)F)nc3cc(CN4CC[C@@H](O)C4)cnc23)c1C (stereo partly drawn) [Compound 135, N-(3'-((2-(difluoromethyl)-7-(((R)-3-hydroxypyrrolidin-1-yl)methyl)pyrido[3,2-d]pyrimidin-4-yl)amino)-2,2'-dimethyl-[1,1'-biphenyl]-3-yl)-4-(4-hydroxypiperidin-1-yl)-4,5,6,7-tetrahydropyrazolo[1,5-a]pyridine-2-carboxamide] | 0.01 to 0.1 µM
Cc1c(NC(=O)c2cc3n(n2)CCCC3N2CCC(C(=O)O)CC2)cccc1-c1cccc(Nc2nc(C(F)F)nc3cc(CN4CC[C@@H](O)C4)cnc23)c1C (stereo partly drawn) [Compound 136, 1-(2-((3'-((2-(difluoromethyl)-7-(((R)-3-hydroxypyrrolidin-1-yl)methyl)pyrido[3,2-d]pyrimidin-4-yl)amino)-2,2'-dimethyl-[1,1'-biphenyl]-3-yl)carbamoyl)-4,5,6,7-tetrahydropyrazolo[1,5-a]pyridin-4-yl)piperidine-4-carboxylic acid] | < 0.01 µM
Cc1c(NC(=O)c2cc3n(n2)CCCC3NC(C)(C)C(=O)O)cccc1-c1cccc(Nc2nc(C(F)F)nc3cc(CN4CC[C@@H](O)C4)cnc23)c1C (stereo partly drawn) [Compound 137, 2-((2-((3'-((2-(difluoromethyl)-7-(((R)-3-hydroxypyrrolidin-1-yl)methyl)pyrido[3,2-d]pyrimidin-4-yl)amino)-2,2'-dimethyl-[1,1'-biphenyl]-3-yl)carbamoyl)-4,5,6,7-tetrahydropyrazolo[1,5-a]pyridin-4-yl)amino)-2-methylpropanoic acid] | < 0.01 µM
O=C(Nc1cccc(-c2cccc(Nc3nc(C(F)F)nc4cc(CN5CC[C@@H](O)C5)cnc34)c2Cl)c1Cl)c1cc2n(n1)CCCC2O (stereo partly drawn) [Compound 138, N-(2,2'-dichloro-3'-((2-(difluoromethyl)-7-(((R)-3-hydroxypyrrolidin-1-yl)methyl)pyrido[3,2-d]pyrimidin-4-yl)amino)-[1,1'-biphenyl]-3-yl)-4-hydroxy-4,5,6,7-tetrahydropyrazolo[1,5-a]pyridine-2-carboxamide] | 0.01 to 0.1 µM
CC(=O)NCCNC1CCCn2nc(C(=O)Nc3cccc(-c4cccc(Nc5nc(C(F)F)nc6cc(CN7CC[C@@H](O)C7)cnc56)c4Cl)c3Cl)cc21 (stereo partly drawn) [Compound 139, 4-((2-acetamidoethyl)amino)-N-(2,2'-dichloro-3'-((2-(difluoromethyl)-7-(((R)-3-hydroxypyrrolidin-1-yl)methyl)pyrido[3,2-d]pyrimidin-4-yl)amino)-[1,1'-biphenyl]-3-yl)-4,5,6,7-tetrahydropyrazolo[1,5-a]pyridine-2-carboxamide] | 0.01 to 0.1 µM
O=C(Nc1cccc(-c2cccc(Nc3nc(C(F)F)nc4cc(CN5CC[C@@H](O)C5)cnc34)c2Cl)c1Cl)c1cc2n(n1)CCCC2N1CC[C@@H](O)C1 (stereo partly drawn) [Compound 140, N-(2,2'-dichloro-3'-((2-(difluoromethyl)-7-(((R)-3-hydroxypyrrolidin-1-yl)methyl)pyrido[3,2-d]pyrimidin-4-yl)amino)-[1,1'-biphenyl]-3-yl)-4-((R)-3-hydroxypyrrolidin-1-yl)-4,5,6,7-tetrahydropyrazolo[1,5-a]pyridine-2-carboxamide] | 0.01 to 0.1 µM
O=C(Nc1cccc(-c2cccc(Nc3nc(C(F)F)nc4cc(CN5CC[C@@H](O)C5)cnc34)c2Cl)c1Cl)c1cc2n(n1)CCCC2NCCO (stereo partly drawn) [Compound 141, N-(2,2'-dichloro-3'-((2-(difluoromethyl)-7-(((R)-3-hydroxypyrrolidin-1-yl)methyl)pyrido[3,2-d]pyrimidin-4-yl)amino)-[1,1'-biphenyl]-3-yl)-4-((2-hydroxyethyl)amino)-4,5,6,7-tetrahydropyrazolo[1,5-a]pyridine-2-carboxamide] | 0.01 to 0.1 µM
O=C(Nc1cccc(-c2cccc(Nc3nc(C(F)F)nc4cc(CN5CC[C@@H](O)C5)cnc34)c2Cl)c1Cl)c1cc2n(n1)CCCC2N1CC[C@@H](C(=O)O)C1 (stereo partly drawn) [Compound 142, (3R)-1-(2-((2,2'-dichloro-3'-((2-(difluoromethyl)-7-(((R)-3-hydroxypyrrolidin-1-yl)methyl)pyrido[3,2-d]pyrimidin-4-yl)amino)-[1,1'-biphenyl]-3-yl)carbamoyl)-4,5,6,7-tetrahydropyrazolo[1,5-a]pyridin-4-yl)pyrrolidine-3-carboxylic acid] | < 0.01 µM
O=C(O)CNC1CCCn2nc(C(=O)Nc3cccc(-c4cccc(Nc5nc(C(F)F)nc6cc(CN7CC[C@@H](O)C7)cnc56)c4Cl)c3Cl)cc21 (stereo partly drawn) [Compound 143, 2-((2-((2,2'-dichloro-3'-((2-(difluoromethyl)-7-(((R)-3-hydroxypyrrolidin-1-yl)methyl)pyrido[3,2-d]pyrimidin-4-yl)amino)-[1,1'-biphenyl]-3-yl)carbamoyl)-4,5,6,7-tetrahydropyrazolo[1,5-a]pyridin-4-yl)amino)acetic acid] | < 0.01 µM
O=C(Nc1cccc(-c2cccc(Nc3nc(C(F)F)nc4cc(CN5CC[C@@H](O)C5)cnc34)c2Cl)c1Cl)c1cc2n(n1)CCCC2N1CCC(O)CC1 (stereo partly drawn) [Compound 144, N-(2,2'-dichloro-3'-((2-(difluoromethyl)-7-(((R)-3-hydroxypyrrolidin-1-yl)methyl)pyrido[3,2-d]pyrimidin-4-yl)amino)-[1,1'-biphenyl]-3-yl)-4-(4-hydroxypiperidin-1-yl)-4,5,6,7-tetrahydropyrazolo[1,5-a]pyridine-2-carboxamide] | 0.01 to 0.1 µM
O=C(Nc1cccc(-c2cccc(Nc3nc(C(F)F)nc4cc(CN5CC[C@@H](O)C5)cnc34)c2Cl)c1Cl)c1cc2n(n1)CCCC2N1CCC(C(=O)O)CC1 (stereo partly drawn) [Compound 145, 1-(2-((2,2'-dichloro-3'-((2-(difluoromethyl)-7-({(R)-3-hydroxypyrrolidin-1-yl)methyl)pyrido[3,2-d]pyrimidin-4-yl)amino)-[1,1'-biphenyl]-3-yl)carbamoyl)-4,5,6,7-tetrahydropyrazolo[1,5-a]pyridin-4-yl)piperidine-4-carboxylic acid] | < 0.01 µM
CC(C)(NC1CCCn2nc(C(=O)Nc3cccc(-c4cccc(Nc5nc(C(F)F)nc6cc(CN7CC[C@@H](O)C7)cnc56)c4Cl)c3Cl)cc21)C(=O)O (stereo partly drawn) [Compound 146, 2-((2-((2,2'-dichloro-3'-((2-(difluoromethyl)-7-(((R)-3-hydroxypyrrolidin-1-yl)methyl)pyrido[3,2-d]pyrimidin-4-yl)amino)-[1,1'-biphenyl]-3-yl)carbamoyl)-4,5,6,7-tetrahydropyrazolo[1,5-a]pyridin-4-yl)amino)-2-methylpropanoic acid] | < 0.01 µM
